Assay results published in PubChem BioAssay AID1963983 (Molecular Pharmacology Branch, DTP, NCI, 2024).

System: 186277-243-T-J2-PDC multi-cell spheroid viability
Experiment: Anticancer human tumor 186277-243-T-J2-PDC patient-derived colon adenocarcinoma cell line growth inhibition [PI3K]
Details: for IC50: curve of first compound; for viability, T/C: stronger effect = lower value
Excerpt: Combinatorial screen of targeted agents with the PI3K inhibitors inavolisib, alpelisib, duvelisib, and copanlisib in multi-cell type tumor spheroids
A high-throughput screen of multi-cell type tumor spheroids was designed to identify active combinations of targeted small molecules and PI3K pathway inhibitors. Complex spheroids include a stromal component modeled by human endothelial cells (HUVEC) and fibroblasts modeled by human mesenchymal stem cells (MSCs). The concentration ranges selected for each drug and investigational agent were based upon clinically achievable concentrations if the clinical Cmax of the agent was known.
Compounds. The drugs and investigational agents: inavolisib (NSC800729), alpelisib (NSC765974), duvelisib (NSC772469), copanlisib (NSC816437), ipatasertib (NSC767898), afuresertib (NSC778305), talazoparib (NSC767125), sapanisertib (NSC764658), selumetinib (NSC741078), tovorafenib (DAY101, NSC766906), vemurafenib (NSC761431), ravoxertinib (NSC781343), sotorasib (NSC818433), MRTX1133 (NSC 836407), abemaciclib (NSC 768073), palbociclib (NSC758247), venetoclax (NSC 766270), SY5609 (NSC837396), enzalutamide (NSC755605), and darolutamide (NSC825331), were obtained from the National Cancer Institute (NCI) Developmental Therapeutics Program Chemical Repository. The FDA-approved anticancer drug set is available from the NCI Developmental Therapeutics Program. […] The stock solutions were prepared in dimethyl sulfoxide (DMSO, Sigma-Aldrich, St. Louis, MO, cat. D2650) at 800-fold the tested concentration and stored at -70 degrees C prior to their use. All drugs and investigational agents were tested over a range starting from a high concentration at or near the clinical Cmax and decreasing in half-log increments. If the clinical Cmax for an agent had not been determined, the highest concentration tested was 10 microM.
Cell Culture. All cells were maintained in an incubator at 37 degrees C and 5% CO2 with 95% humidity. The PDC lines were cultured according to standard operating procedures established by the NCI PDMR (https://pdmr.cancer.gov/sops/default.htm). All PDCs were thawed and cultured in Matrigel-coated flasks prepared with a working solution of 1X Ham's F-12 nutrient mix, without supplementation (Invitrogen, Waltham, MA, cat. 11765054), 100 U/mL penicillin-streptomycin (Invitrogen, cat. 15140122), and 2.5% Matrigel (Corning Inc., Corning, NY, cat. 354248) for the first three passages. The 354836-022-R-J1-PDC, 475296-252-R-J1-PDC, and 997726-040-R-J2-PDC lines were cultured in 6A media, which includes advanced DMEM/F-12 (Thermo Fisher Scientific, cat. 12634028), 10 mM HEPES (Thermo Fisher Scientific, cat. 15630080), 1X GlutaMAX supplement (Thermo Fisher Scientific, cat. 35050061), 0.1 mg/mL primocin (InvivoGen, San Diego, CA, cat. ant-pm-2), 10% defined fetal bovine serum, heat inactivated (HyClone Laboratories Inc., Logan, UT, cat. SH30070.03HI), 50% L-WRN conditioned media (ATCC, cat. CRL-3276), 1.25 mM N-Acetyl-L-cysteine (Sigma-Aldrich, cat. A9165), 10 mM nicotinamide (Sigma-Aldrich, cat. N0636), 1X B-27 supplement (Thermo Fisher Scientific, cat. 17504044), 1X N-2 supplement (Thermo Fisher Scientific, cat. 17502048), and 10 microM Y-27632 dihydrochloride (Tocris Bioscience, Bristol, United Kingdom, cat. 1254). The 624824-186-R-J2-PDC line was cultured in 6C/Colon 1B media, which includes all 6A media components plus 50 ng/mL human EGF recombinant protein (Thermo Fisher Scientific, cat. PHG0311). […]
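Note: spheroids exposed to compounds for seven days before viability reading.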
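Throughout, for viability, T/C: 100% = DMSO vehicle control viability.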

Work on `Cn1cnc2c(F)c(Nc3ccc(Br)cc3Cl)c(C(=O)NOCCO)cc21` + CC(Nc1ncnc2nc[nH]c12)c1cc2cccc(Cl)c2c(=O)n1-c1ccccc1 yielded an IC50 (second compound 0.0316 µM) of 175 nM, an IC50 (second compound 0.1 µM) of 162 nM and an IC50 (second compound 0.316 µM) of 148 nM. For the same compound, the IC50 (second compound 1 µM) was 114 nM, the IC50 (second compound 3.16 µM) was 62.7 nM and the IC50 (second compound 10 µM) was 23.1 nM. It also gave a viability, T/C (second compound 0.0316 µM, first compound 0.00949 µM) of 93%, a viability, T/C (second compound 0.0316 µM, first compound 0.03 µM) of 91.3% and a viability, T/C (second compound 0.0316 µM, first compound 0.0949 µM) of 58.8%. It also gave a viability, T/C (second compound 0.0316 µM, first compound 0.3 µM) of 38.9%, a viability, T/C (second compound 0.0316 µM, first compound 0.949 µM) of 23.3% and a viability, T/C (second compound 0.0316 µM, first compound 3 µM) of 10.3%. It also gave a viability, T/C (second compound 0.1 µM, first compound 0.00949 µM) of 115%, a viability, T/C (second compound 0.1 µM, first compound 0.03 µM) of 92.3% and a viability, T/C (second compound 0.1 µM, first compound 0.0949 µM) of 56.4%. The viability, T/C (second compound 0.1 µM, first compound 0.3 µM) was 40.1%, the viability, T/C (second compound 0.1 µM, first compound 0.949 µM) was 22.2% and the viability, T/C (second compound 0.1 µM, first compound 3 µM) was 12%. The viability, T/C (second compound 0.316 µM, first compound 0.00949 µM) was 91.1%, the viability, T/C (second compound 0.316 µM, first compound 0.03 µM) was 82.4% and the viability, T/C (second compound 0.316 µM, first compound 0.0949 µM) was 57.4%. It also gave a viability, T/C (second compound 0.316 µM, first compound 0.3 µM) of 37.5%, a viability, T/C (second compound 0.316 µM, first compound 0.949 µM) of 15.3% and a viability, T/C (second compound 0.316 µM, first compound 3 µM) of 12.5%. For the same compound, the viability, T/C (second compound 1 µM, first compound 0.00949 µM) was 112%, the viability, T/C (second compound 1 µM, first compound 0.03 µM) was 82.5% and the viability, T/C (second compound 1 µM, first compound 0.0949 µM) was 49.7%. The viability, T/C (second compound 1 µM, first compound 0.3 µM) was 35.1%, the viability, T/C (second compound 1 µM, first compound 0.949 µM) was 19.5% and the viability, T/C (second compound 1 µM, first compound 3 µM) was 9.14%. For the same compound, the viability, T/C (second compound 3.16 µM, first compound 0.00949 µM) was 104%, the viability, T/C (second compound 3.16 µM, first compound 0.03 µM) was 64.1% and the viability, T/C (second compound 3.16 µM, first compound 0.0949 µM) was 39.9%. The viability, T/C (second compound 3.16 µM, first compound 0.3 µM) was 28.5%, the viability, T/C (second compound 3.16 µM, first compound 0.949 µM) was 18.3% and the viability, T/C (second compound 3.16 µM, first compound 3 µM) was 7.22%. For the same compound, the viability, T/C (second compound 10 µM, first compound 0.00949 µM) was 75.7%, the viability, T/C (second compound 10 µM, first compound 0.03 µM) was 41.1% and the viability, T/C (second compound 10 µM, first compound 0.0949 µM) was 25.4%. For the same compound, the viability, T/C (second compound 10 µM, first compound 0.3 µM) was 14.1%, the viability, T/C (second compound 10 µM, first compound 0.949 µM) was 8.69% and the viability, T/C (second compound 10 µM, first compound 3 µM) was 5.17%.
In the case of `CNC(=O)c1ccc(N2C(=S)N(c3ccc(C#N)c(C(F)(F)F)c3)C(=O)C2(C)C)cc1F` + COc1c(OCCCN2CCOCC2)ccc2c3n(c(=NC(=O)c4cnc(N)nc4)nc12)CCN3, the IC50 (second compound 0.00316 µM) is reported as > 10000 nM, the IC50 (second compound 0.01 µM) is reported as > 10000 nM and the IC50 (second compound 0.0316 µM) is reported as > 10000 nM. For the same compound, the IC50 (second compound 0.1 µM) was < 31.6 nM, the IC50 (second compound 0.316 µM) was < 31.6 nM and the IC50 (second compound 1 µM) was < 31.6 nM. The viability, T/C (second compound 0.00316 µM, first compound 0.0316 µM) was 110%, the viability, T/C (second compound 0.00316 µM, first compound 0.1 µM) was 113% and the viability, T/C (second compound 0.00316 µM, first compound 0.316 µM) was 111%. It also gave a viability, T/C (second compound 0.00316 µM, first compound 1 µM) of 88.2%, a viability, T/C (second compound 0.00316 µM, first compound 3.16 µM) of 112% and a viability, T/C (second compound 0.00316 µM, first compound 10 µM) of 107%. The viability, T/C (second compound 0.01 µM, first compound 0.0316 µM) was 98.8%, the viability, T/C (second compound 0.01 µM, first compound 0.1 µM) was 121% and the viability, T/C (second compound 0.01 µM, first compound 0.316 µM) was 103%. For the same compound, the viability, T/C (second compound 0.01 µM, first compound 1 µM) was 94.8%, the viability, T/C (second compound 0.01 µM, first compound 3.16 µM) was 112% and the viability, T/C (second compound 0.01 µM, first compound 10 µM) was 115%. For the same compound, the viability, T/C (second compound 0.0316 µM, first compound 0.0316 µM) was 88.9%, the viability, T/C (second compound 0.0316 µM, first compound 0.1 µM) was 85.6% and the viability, T/C (second compound 0.0316 µM, first compound 0.316 µM) was 81.3%. For the same compound, the viability, T/C (second compound 0.0316 µM, first compound 1 µM) was 81.7%, the viability, T/C (second compound 0.0316 µM, first compound 3.16 µM) was 95.3% and the viability, T/C (second compound 0.0316 µM, first compound 10 µM) was 73.4%. It also gave a viability, T/C (second compound 0.1 µM, first compound 0.0316 µM) of 23.3%, a viability, T/C (second compound 0.1 µM, first compound 0.1 µM) of 20.2% and a viability, T/C (second compound 0.1 µM, first compound 0.316 µM) of 21.5%. The viability, T/C (second compound 0.1 µM, first compound 1 µM) was 17.8%, the viability, T/C (second compound 0.1 µM, first compound 3.16 µM) was 19.6% and the viability, T/C (second compound 0.1 µM, first compound 10 µM) was 22.7%. It also gave a viability, T/C (second compound 0.316 µM, first compound 0.0316 µM) of 6.01%, a viability, T/C (second compound 0.316 µM, first compound 0.1 µM) of 6.73% and a viability, T/C (second compound 0.316 µM, first compound 0.316 µM) of 4.24%. The viability, T/C (second compound 0.316 µM, first compound 1 µM) was 5.77%, the viability, T/C (second compound 0.316 µM, first compound 3.16 µM) was 7.13% and the viability, T/C (second compound 0.316 µM, first compound 10 µM) was 5.44%. The viability, T/C (second compound 1 µM, first compound 0.0316 µM) was 3.23%, the viability, T/C (second compound 1 µM, first compound 0.1 µM) was 2.22% and the viability, T/C (second compound 1 µM, first compound 0.316 µM) was 3.19%. It also gave a viability, T/C (second compound 1 µM, first compound 1 µM) of 1.9%, a viability, T/C (second compound 1 µM, first compound 3.16 µM) of 2.85% and a viability, T/C (second compound 1 µM, first compound 10 µM) of 4.06%.
